Test results from patent US7807703B2, “Substituted aryl ketones” (Bayer CropScience AG, priority 2002, dated 2010).

Assay: log P determination by reversed-phase HPLC (EEC Directive 79/831 Annex V.A8; acidic or neutral mobile phase)
Format: physicochemical
Conditions: HPLC reversed-phase C18, 43° C., acidic range: 0.1% aqueous phosphoric acid, acetonitrile (marked a))
Procedure: The log P values given in the table were determined in accordance with EEC Directive 79/831 Annex V.A8 by HPLC (High Performance Liquid Chromatography) using a reversed-phase column (C 18). Temperature: 43° C.
(a) Mobile phases for the determination in the acidic range: 0.1% aqueous phosphoric acid, acetonitrile; linear gradient from 10% acetonitrile to 90% acetonitrile—the corresponding measurement results are marked a) in Table 1.
(b) Mobile phases for the determination in the neutral range: 0.01 molar aqueous phosphate buffer solution, acetonitrile; linear gradient from 10% acetonitrile to 90% acetonitrile—the corresponding measurement results are marked b) in Table 1.

SMILES | logP
CCn1ncc(C(=O)c2ccc(S(C)(=O)=O)c(CNOCc3ccccc3)c2Cl)c1O [Example 200] | (I-2) logP = 2.31^a)

Same assay, conditions: HPLC reversed-phase C18, 43° C.; acidic range: 0.1% aqueous phosphoric acid, acetonitrile gradient (marked a))

SMILES | logP
CCn1ncc(C(=O)c2ccc(S(C)(=O)=O)c(CN(C)OC)c2Cl)c1O [Example 11] | logP = 1.78^a)
CCn1ncc(C(=O)c2ccc(S(C)(=O)=O)c(CN(Cc3ccccc3)OC)c2Cl)c1O [Example 153] | (I-2) logP = 2.82^a)
O=C1CCCC(=O)C1C(=O)c1ccc(Cl)c(OCCNS(=O)(=O)CCl)c1Cl [Example 7] | logP = 2.57^a)
CON(C)Cc1c(S(C)(=O)=O)ccc(C(=O)C2C(=O)CCCC2=O)c1Cl [Example 145] | logP = 2.49^a)
CCS(=O)(=O)NCCOc1c(Br)ccc(C(=O)C2C(=O)CCCC2=O)c1Br [Example 20] | logP = 2.45^a)
C=CCN(Cc1c(S(C)(=O)=O)ccc(C(=O)C2C(=O)CCCC2=O)c1Cl)OC [Example 158] | (I-2) logP = 3.01^a)
CCONCc1c(Cl)ccc(C(=O)c2cnn(CC)c2O)c1Cl [Example 134] | logP = 2.07^a)
CCn1ncc(C(=O)c2ccc(Br)c(OCCNS(C)(=O)=O)c2Br)c1O [Example 17] | logP = 1.71^a)
CCN(Cc1c(S(C)(=O)=O)ccc(C(=O)C2C(=O)CCCC2=O)c1Cl)OC [Example 150] | logP = 2.87^a)
CCN(Cc1c(S(C)(=O)=O)ccc(C(=O)c2cnn(CC)c2O)c1Cl)OC [Example 149] | logP = 2.16^a)
CCn1ncc(C(=O)c2ccc(Cl)c(OCCNS(=O)(=O)C(C)C)c2Cl)c1O [Example 24] | logP = 2.07^a)
CCn1nc(C)c(C(=O)c2ccc(S(C)(=O)=O)c(CN(C)OC)c2Cl)c1O [Example 12] | logP = 1.45^a)
CCCS(=O)(=O)NCCOc1c(Cl)ccc(C(=O)c2cnn(CC)c2O)c1Cl [Example 167] | logP = 2.15^a)
CCONCc1c(S(C)(=O)=O)ccc(C(=O)c2cnn(CC)c2O)c1Cl [Example 136] | logP = 1.58^a)

Same assay, conditions: HPLC, reversed-phase C18, 43° C.; acidic range a): 0.1% aqueous phosphoric acid, acetonitrile, linear gradient 10% to 90% acetonitrile

SMILES | logP
CN(Cc1c(S(C)(=O)=O)ccc(C(=O)C2C(=O)CCC(C)(C)C2=O)c1Cl)S(C)(=O)=O (stereo not drawn) [Example 455] | (I-2) logP = 2.43^a)
CCON(Cc1c(S(C)(=O)=O)ccc(C(=O)c2cnn(CC)c2O)c1Cl)C(C)C [Example 392] | logP = 2.89^a)
CCn1ncc(C(=O)c2ccc(S(C)(=O)=O)c(CN(OC)C3CCCC3)c2Cl)c1O [Example 379] | (I-2) logP = 2.99^a)
CCn1ncc(C(=O)c2ccc(S(C)(=O)=O)c(CN(CC3CCOC3)OC3CCCC3)c2Cl)c1O (stereo not drawn) [Example 417] | (I-2) logP = 2.76^a)
COCCON(C)Cc1c(S(C)(=O)=O)ccc(C(=O)c2cnn(C)c2O)c1Cl [Example 433] | (I-2) logP = 1.51^a)
CCN(Cc1c(S(C)(=O)=O)ccc(C(=O)C2C(=O)CCCC2=O)c1Cl)OC(C)C [Example 402] | logP = 3.52^a)
CCn1ncc(C(=O)c2ccc(S(C)(=O)=O)c(CN(CC3CCOC3)OC)c2Cl)c1O (stereo not drawn) [Example 423] | (I-2) logP = 1.97^a)
CON(CC(=O)N(C)C)Cc1c(S(C)(=O)=O)ccc(C(=O)C2C(=O)CCCC2=O)c1Cl [Example 396] | (I-2) logP = 1.93^a)
CCn1ncc(C(=O)c2ccc(S(C)(=O)=O)c(CN(OC(C)C)C(C)C)c2Cl)c1O [Example 421] | logP = 3.25^a)
CON(Cc1c(S(C)(=O)=O)ccc(C(=O)c2cnn(C)c2O)c1Cl)C(C)C [Example 371] | logP = 2.16^a)
CCN(Cc1c(Cl)ccc(C(=O)C2C(=O)CCC(C)(C)C2=O)c1Cl)OC (stereo not drawn) [Example 481] | (I-2) logP = 4.95^a)
CCN(Cc1c(Cl)ccc(C(=O)c2cnn(C)c2O)c1OC)OC [Example 486] | logP = 2.44^a)
CON(Cc1cccnc1)Cc1c(S(C)(=O)=O)ccc(C(=O)c2cnn(C)c2O)c1Cl [Example 386] | (I-2) logP = 0.64^a)
CN(Cc1c(S(C)(=O)=O)ccc(C(=O)C2C(=O)CCCC2=O)c1Cl)OC1CCCC1 [Example 398] | (I-2) logP = 3.69^a)
COc1c(C(=O)C2C(=O)CC(C)CC2=O)ccc(Cl)c1CN(C)OC (stereo not drawn) [Example 482] | (I-2) logP = 3.09^a)
CCN(Cc1c(Cl)ccc(C(=O)C2C(=O)CC(C)CC2=O)c1OC)S(C)(=O)=O (stereo not drawn) [Example 474] | (I-2) logP = 2.81^a)
CCON(Cc1c(S(C)(=O)=O)ccc(C(=O)C2C(=O)CCCC2=O)c1Cl)CC1CCOC1 (stereo not drawn) [Example 415] | (I-2) logP = 2.84^a)
CN(Cc1c(S(C)(=O)=O)ccc(C(=O)c2cnn(C)c2O)c1Cl)OCC1CCCCO1 (stereo not drawn) [Example 440] | (I-2) logP = 2.01^a)
CCn1nc(C)c(C(=O)c2ccc(Cl)c(OCCNS(C)(=O)=O)c2Cl)c1O [Example 355] | logP = 1.32^a)
CN(Cc1c(Cl)ccc(C(=O)C2C(=O)CCCC2=O)c1Cl)S(C)(=O)=O [Example 458] | logP = 2.32^a)
CON(Cc1c(S(C)(=O)=O)ccc(C(=O)c2cnn(C)c2O)c1Cl)C1CCCC1 [Example 378] | (I-2) logP = 2.59^a)
CON(Cc1c(S(C)(=O)=O)ccc(C(=O)C2C(=O)CCCC2=O)c1Cl)CC1CCOC1 (stereo not drawn) [Example 408] | (I-2) logP = 2.50^a)
C=CCN(Cc1c(S(C)(=O)=O)ccc(C(=O)C2C(=O)CCCC2=O)c1Cl)S(C)(=O)=O [Example 460] | logP = 2.17^a)
CCn1ncc(C(=O)c2ccc(Cl)c(CN(C)OC)c2OC)c1O [Example 479] | logP = 2.35^a)
CN(Cc1c(S(C)(=O)=O)ccc(C(=O)C2C(=O)CCCC2=O)c1Cl)OCC1CCCCO1 (stereo not drawn) [Example 438] | (I-2) logP = 3.04^a)
Cn1ncc(C(=O)c2ccc(Cl)c(OCCNS(C)(=O)=O)c2Cl)c1O [Example 353] | logP = 1.36^a)
CCON(Cc1c(S(C)(=O)=O)ccc(C(=O)c2cnn(CC)c2O)c1Cl)CC1CCOC1 (stereo not drawn) [Example 416] | (I-2) logP = 2.11^a)
CCN(Cc1c(Cl)ccc(C(=O)c2cnn(CC)c2O)c1OC)S(C)(=O)=O [Example 462] | logP = 2.12^a)

Same assay, conditions: HPLC, reversed-phase C 18, 43° C.; acidic range: 0.1% aqueous phosphoric acid, acetonitrile (marked a) or acidic)

SMILES | log P (acidic)
COC(=O)c1ccc(S(C)(=O)=O)c(CN(CC2CC2)OC)c1Cl [VIII-34] | logPacidic = 3.18
COC(=O)c1ccc(Cl)c(CN(C)OC)c1OC [VIII-66] | logPacidic = 2.76
COC(=O)c1ccc(S(C)(=O)=O)c(CN(OC)C(=O)C(F)(F)F)c1Cl [VIII-50] | logPacidic = 2.60
COC(=O)c1ccc(S(C)(=O)=O)c(CN(C)OC)c1Cl [VIII-22] | logPacidic = 2.31
COC(=O)c1ccc(Br)c(OCCNS(C)(=O)=O)c1Br [VIII-32] | logPacidic = 2.13
COC(=O)c1ccc(S(C)(=O)=O)c(CN(OC)C(=O)C2CC2)c1Cl [VIII-52] | logPacidic = 2.02
COC(=O)c1ccc(Br)c(OCCNS(C)(=O)=O)c1C [VIII-28] | logPacidic = 2.20
COC(=O)c1ccc(S(C)(=O)=O)c(CN(C)S(C)(=O)=O)c1Cl [VIII-69] | logPacidic = 1.65
COC(=O)c1ccc(S(C)(=O)=O)c(CN(C)OCC2CC2)c1Cl [VIII-33] | logPacidic = 2.98
COC(=O)c1ccc(Cl)c(OCCNS(C)(=O)=O)c1C [VIII-26] | logPacidic = 2.14
COC(=O)c1ccc(S(C)(=O)=O)c(CN(OC)C2CCCC2)c1Cl [VIII-38] | logPacidic = 3.67
COC(=O)c1ccc(S(C)(=O)=O)c(CN(C)OCC2CCCO2)c1Cl (stereo not drawn) [VIII-64] | logPacidic = 2.51
CCN(Cc1c(Cl)ccc(C(=O)OC)c1OC)S(C)(=O)=O [VIII-71] | logPacidic = 2.38
CCS(=O)(=O)NCCOc1c(Br)ccc(C(=O)OC)c1C [VIII-29] | logPacidic = 2.46
COC(=O)c1ccc(S(C)(=O)=O)c(CN(OC)C(C)=O)c1Cl [VIII-39] | logPacidic = 1.58
COC(=O)c1ccc(S(C)(=O)=O)c(CN(Cc2ccccc2)OC)c1Cl [VIII-24] | logPacidic = 3.42

Same assay, conditions: HPLC, reversed-phase C 18, 43° C.; mobile phase range not marked

SMILES | log P | logP (HPLC, mobile phase not marked)
CCCS(=O)(=O)NCCOc1c(Cl)ccc(C(=O)OCC)c1Cl [VIII-19] | logP = 2.92 | 
CCn1ncc(C(=O)c2ccc(S(C)(=O)=O)c(CN(Cc3ccccc3)OC)c2Cl)c1O [Example 334] |  | 2.82
COC(=O)c1ccc(Cl)c(CN(C)OC)c1Cl [VIII-8] | logP = 3.08 | 
COC(=O)c1ccc(S(C)(=O)=O)c(CNN2CCNC2=O)c1Cl [VIII-5] | logP = 1.24 | 
CS(=O)(=O)c1ccc(C(=O)C2C(=O)CCCC2=O)c(Cl)c1CNOCc1ccccc1 [Example 348] |  | (I-2) 3.04
CCONCc1c(Cl)ccc(C(=O)OC)c1Cl [VIII-7] | logP = 2.77 | 
CCOC(=O)c1ccc(Cl)c(OCCNS(=O)(=O)CC(F)(F)F)c1Cl [VIII-17] | logP = 3.08 | 
CCONCc1c(S(C)(=O)=O)ccc(C(=O)OC)c1Cl [VIII-11] | logP = 2.05 | 
CCn1ncc(C(=O)c2ccc(S(C)(=O)=O)c(CNOC)c2Cl)c1O [Example 299] |  | 1.20
CONCc1c(Cl)ccc(C(=O)OC)c1Cl [VIII-6] | logP = 2.26 | 
CONCc1c(S(C)(=O)=O)ccc(C(=O)OC)c1Cl [VIII-10] | logP = 1.69 | 
CON(Cc1ccccc1)Cc1c(S(C)(=O)=O)ccc(C(=O)c2cnn(C)c2O)c1Cl [Example 335] |  | 2.48

Same assay, conditions: reversed-phase C18 HPLC column; HPLC, reversed-phase C 18, 43° C.; mobile phase range not marked; read-out: log P

SMILES | chromatographic logP
CCOC(=O)c1ccc(Cl)c(OCCN)c1Cl [ethyl 3-(2-aminoethoxy)-2,4-dichlorobenzoate] | 1.08
